These results are taken from patent US20070123556A1, “Treatment with Sigma Receptor Agonists Post-Stroke” (UNIVERSITY OF SOUTH FLORIDA, priority 2005, published 2007).

Assay [1] has as its system cultured cortical neurons. In words: spontaneous Ca2+ transients, fura-2 [Ca2+]i. The class given is cell-based, rat. To be noted: 100 μM.
A further assay relates to cultured microglia. To be noted: response to LPS; cited from earlier work.
Another assay relates to rats subjected to MCAO. In words: GFAP immunostaining, reactive astrocytes after MCAO. The conditions noted are these: 15 mg/kg DTG from 24 h post-MCAO. The class given is in vivo, rat. How it is done:
MCAO surgery was performed as previously reported by Vendrame et al (Vendrame et al., 2004) and originally described by Longa et al (Longa et al., 1989). Laser Doppler Radar (LDR) was used to monitor decrease in blood perfusion which indicates successful occlusion (Moor Instruments Ltd, Devon, England). A 2 mm diameter hole was drilled into the right parietal bone (1 mm posterior and 4 mm lateral from bregma), and a guide screw was set. The LDR probe (MP10M200ST; Moor) was inserted into the guide screw, and the tip of the probe was placed against the pial surface of the brain. […] For MCAO, the embolus (4 cm long, 6 lb test monofilament) was advanced up the internal carotid artery into the middle cerebral artery and tied off at the internal/external carotid junction to produce permanent occlusion. The rat was then sutured, given a 1 ml subcutaneous injection of saline, and allowed to wake in a fresh cage.
Rats were randomly assigned to 1 of 7 groups: (1) MCAO (n=7); (2) MCAO and 15 mg/kg DTG in a 3% lactic acid vehicle (n=11); (3) MCAO and 30 mg/kg DTG (n=16); (4) MCAO and bi-daily injections of 30 mg/kg DTG (n=12); (5) MCAO and 10 mg/kg N-[2-(3,4-dichlorophenyl)ethyl]-N-methyl-2-(dimethylamino)ethylamine (BD 1047) (n=4); (6) MCAO and 10 mg/kg BD1047+30 mg/kg DTG (n=4); (7) sham/MCAO and 15 mg/kg DTG (n=4). […]

Regarding `Cc1ccccc1NC(=N)Nc1ccccc1C` [DTG, 1,3-di-o-tolyguanidine], the “effect on spontaneous increases in [Ca2+]i (number of events)” value in assay [1] was “reversibly block”. For the same compound, in the assay on cultured microglia, the “production of TNF-α” value is on record as “inhibits” and the “production of nitric oxide” value is reported as “inhibits”. In the assay with rats subjected to MCAO, the “level of GFAP expression in brain sections” value is recorded as “marked decrease”.
